From patent US11851440B2, “Modulators of eukaryotic initiation factor 2B, compositions and methods” (Denali Therapeutics Inc., priority 2017, dated 2023)
Like-named read-outs stand apart in the source and are kept apart here.

Assays:
[1] = biological target: T1, P-gp (P-glycoprotein, MDR1) (Homo sapiens, UniProt P08183); test: MDCKII-MDR1 permeability, bidirectional assay; format: in vitro ADME; conditions: dog, MDCK-MDR1, MDCKII-MDR1 cells, HBSS+12.5 mM HEPES pH 7.4
T1 construct: host or cells: MDCKII-MDR1 cells (pre-plated, Corning HTS Transwell-96)
Protocol: The blood brain barrier (BBB) separates circulating blood from the extracellular fluid of the central nervous system (CNS). […] A bidirectional assay (Apical to Basolateral (A→B) and Basolateral to Apical (B→A)), in the absence and in the presence of GF120918 (a P-gp inhibitor) was conducted using pre-plated MDCKII-MDR1 cells (Corning HTS Transwell-96) obtained from SOLVO Biotechnology. The assay was run at 3 μM for 90 min (minutes) in triplicate using a HBSS+12.5 mM HEPES pH 7.4 transport buffer. Following incubation of samples from donor and receiver, wells were removed and measured by LC-MS/MS. Samples were extracted by protein precipitation with acetonitrile containing an appropriate internal standard (IS) having a known mass and molecular weight. The precipitate was centrifuged for 10 min at 3000 rpm (revolutions per minute). The supernatants were then collected, diluted if necessary, and injected on to the LC-MS/MS system. Specific parent/daughter ion pairs for the test article and IS were used to selectively measure the test articles. Papp (apparent permeability expressed in nm/sec [nanometer/second]) values were calculated according to the following equation: […]
Where dQ/dt is the permeability rate, C0 is the initial concentration in the donor solution (expressed as IS ratio), A and B are the surface areas of the filter (the surface area of the cell monolayer).
Monolayer efflux ratios (ER) were derived using the following equation: […]

[2] = system: ISR pathway (ATF4 translation); test: ATF4 Nano Luciferase reporter integrated stress response (ISR) assay in H4 ATF4-NLuc cells; conditions: Homo sapiens, compound 30 minutes, then 50 um sodium arsenite for 6 hours, luminescence readout
[3] = read-out: Activity (IC50), H4 ATF4-NLuc (clone 17) cells

T1 sequence (P08183 whole entry): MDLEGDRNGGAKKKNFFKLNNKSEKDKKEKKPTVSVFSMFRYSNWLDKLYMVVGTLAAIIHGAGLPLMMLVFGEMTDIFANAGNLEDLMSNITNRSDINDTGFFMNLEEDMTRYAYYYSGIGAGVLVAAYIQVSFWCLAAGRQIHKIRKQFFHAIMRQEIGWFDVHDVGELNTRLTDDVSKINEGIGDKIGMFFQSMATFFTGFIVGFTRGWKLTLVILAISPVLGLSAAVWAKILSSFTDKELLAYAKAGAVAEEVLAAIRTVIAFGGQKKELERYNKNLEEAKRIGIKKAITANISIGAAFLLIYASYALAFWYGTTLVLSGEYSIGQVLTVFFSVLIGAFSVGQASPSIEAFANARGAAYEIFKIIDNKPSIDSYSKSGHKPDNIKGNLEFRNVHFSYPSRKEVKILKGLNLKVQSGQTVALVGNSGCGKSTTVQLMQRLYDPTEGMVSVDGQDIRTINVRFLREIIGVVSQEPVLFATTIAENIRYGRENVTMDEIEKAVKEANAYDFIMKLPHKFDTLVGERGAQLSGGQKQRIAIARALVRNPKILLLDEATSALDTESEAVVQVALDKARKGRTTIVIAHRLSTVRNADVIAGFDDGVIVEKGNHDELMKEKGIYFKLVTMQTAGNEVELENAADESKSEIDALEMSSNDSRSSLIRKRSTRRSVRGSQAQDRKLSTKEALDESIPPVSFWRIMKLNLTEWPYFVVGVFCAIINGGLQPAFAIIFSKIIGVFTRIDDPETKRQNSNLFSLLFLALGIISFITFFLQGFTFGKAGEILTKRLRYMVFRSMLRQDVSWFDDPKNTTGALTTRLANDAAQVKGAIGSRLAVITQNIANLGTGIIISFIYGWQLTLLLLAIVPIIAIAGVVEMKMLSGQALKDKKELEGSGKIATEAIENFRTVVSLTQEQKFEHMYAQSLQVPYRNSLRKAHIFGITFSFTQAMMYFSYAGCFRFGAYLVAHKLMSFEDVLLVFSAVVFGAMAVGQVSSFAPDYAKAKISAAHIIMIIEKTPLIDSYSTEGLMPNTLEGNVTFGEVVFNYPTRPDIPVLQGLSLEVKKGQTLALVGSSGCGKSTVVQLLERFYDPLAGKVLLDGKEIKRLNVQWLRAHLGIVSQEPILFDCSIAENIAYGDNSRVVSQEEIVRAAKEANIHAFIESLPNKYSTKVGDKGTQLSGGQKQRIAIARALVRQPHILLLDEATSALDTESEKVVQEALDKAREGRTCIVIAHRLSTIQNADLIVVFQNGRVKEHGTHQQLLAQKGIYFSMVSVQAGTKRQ

Compound | efflux ratio at 90 min, 3 μM [1] | IC50 ([2]; H4 ATF4-NLuc (clone 17) cells) [nM] | IC50 [2, 3] [nM]
O=C(COc1ccc(Cl)c(F)c1)NC12CC(c3nnc([C@@H]4C[C@H]4COC(F)(F)F)o3)(C1)C2 (single isomer, unassigned) [Example 81, 2-(4-chloro-3-fluoro-phenoxy)-N-[3-[5-[2-trans-(trifluoromethoxymethyl)cyclopropyl]-1,3,4-oxadiazol-2-yl]-1-bicyclo[1.1.1]pentanyl]acetamide] | ≤ 2.5 | 11.8 | < 1000
O=C(COc1ccc(Cl)c(F)c1)NC12CC(c3nnc(CCCOC(F)(F)F)o3)(C1)C2 [Example 49, 2-(4-chloro-3-fluorophenoxy)-N-(3-(5-(3-(trifluoromethoxy)propyl)-1,3,4-oxadiazol-2-yl)bicyclo[1.1.1]pentan-1-yl)acetamide] | ≤ 2.5 | 18.2 | < 1000
O=C(CO[C@H]1C[C@@H](OC(F)(F)F)C1)NC12CC(n3cnc(-c4ccc(Cl)c(F)c4)c3)(C1)C2 [Example 70, N-[3-[4-(4-chloro-3-fluoro-phenyl)imidazol-1-yl]-1-bicyclo[1.1.1]pentanyl]-2-[3-cis-(trifluoromethoxy)cyclobutoxy]acetamide] | ≤ 2.5 | 2.8 | < 1000
O=C(COc1ccc(Cl)c(F)c1)NC12CC(NCCO[C@H]3C[C@@H](OC(F)(F)F)C3)(C1)C2 [Example 133, 2-(4-chloro-3-fluoro-phenoxy)-N-[1-[2-[cis-3-(trifluoromethoxy)cyclobutoxy]ethylamino]-3-bicyclo[1.1.1]pentanyl]acetamide] | ≤ 2.5 | 18.1 | < 1000
O=C(CO[C@H]1C[C@@H](OC(F)(F)F)C1)NC12CC(n3cnc(-c4ccc(Cl)cc4)c3)(C1)C2 [Example 139, N-(3-(4-(4-chlorophenyl)-1H-imidazol-1-yl)bicyclo[1.1.1]pentan-1-yl)-2-(3-cis-(trifluoromethoxy)cyclobutoxy)acetamide] | ≤ 2.5 | 4.3 | < 1000
O=C(CO[C@H]1C[C@@H](OC(F)(F)F)C1)NC12CC(n3cnc(-c4ccc(Cl)cc4F)c3)(C1)C2 [Example 146, N-(3-(4-(4-chloro-2-fluorophenyl)-1H-imidazol-1-yl)bicyclo[1.1.1]pentan-1-yl)-2-(3-cis-(trifluoromethoxy)cyclobutoxy)acetamide] | ≤ 2.5 | 3.7 | < 1000
O=C(CO[C@H]1C[C@@H](OC(F)(F)F)C1)NC12CC(c3cnn(-c4ccc(Cl)c(F)c4)c3)(C1)C2 [Example 236, N-(3-(1-(4-chloro-3-fluorophenyl)-1H-pyrazol-4-yl)bicyclo[1.1.1]pentan-1-yl)-2-(3-cis-(trifluoromethoxy)cyclobutoxy)acetamide] | ≤ 2.5 | 21.5 | < 1000
O=C(CO[C@H]1C[C@@H](OC(F)(F)F)C1)NC12CC(c3cc(-c4ccc(Cl)c(F)c4)no3)(C1)C2 [Example 248, N-(3-(3-(4-chloro-3-fluorophenyl)isoxazol-5-yl)bicyclo[1.1.1]pentan-1-yl)-2-(3-cis-(trifluoromethoxy)cyclobutoxy)acetamide] | ≤ 2.5 | 28.2 | < 1000
O=C(CO[C@H]1C[C@@H](OC(F)(F)F)C1)NC12CC(n3cnc(-c4ccc(C(F)(F)F)cc4O)c3)(C1)C2 [Example 254, N-(3-(4-(2-hydroxy-4-(trifluoromethyl)phenyl)-1H-imidazol-1-yl)bicyclo[1.1.1]pentan-1-yl)-2-(3-cis-(trifluoromethoxy)cyclobutoxy)acetamide] | ≤ 2.5 | 5.3 | < 1000
O=C(CO[C@H]1C[C@@H](OC(F)(F)F)C1)NC12CC(n3cnc(-c4ccc(Cl)c(F)c4F)c3)(C1)C2 [Example 270, N-(3-(4-(4-chloro-2,3-difluorophenyl)-1H-imidazol-1-yl)bicyclo[1.1.1]pentan-1-yl)-2-(3-cis-(trifluoromethoxy)cyclobutoxy)acetamide] | ≤ 2.5 | 1.1 | < 1000
O=C(CO[C@H]1C[C@@H](OC(F)(F)F)C1)NC12CC(c3nnc(OCCOC(F)(F)F)o3)(C1)C2 [Example 276] | – | – | < 1000
O=C(NC12CC(c3nnc([C@H]4C[C@@H](OC(F)(F)F)C4)o3)(C1)C2)c1cn(CCOC(F)(F)F)cn1 [Example 277] | – | – | < 1000
